Test system: VSV luc particles bearing the native VSV G glycoprotein
Type: cell-based, vesicular stomatitis virus

SMILES | specificity for EboV GP versus VSV G particles
Oc1ccc(/C=N/n2c(-c3ccco3)cs/c2=N\c2ccc(F)cc2F)c(O)c1 [compound 7] | EboV specific
CCOc1ccc(S(=O)(=O)N(C)c2ccc(OCC(=O)N(C)C3CCN(C)CC3)cc2)cc1 [compound 6] | EboV specific
COC(=O)c1ccc(-c2ccco2)n1Cc1cccc(F)c1 [compound 8] | EboV specific

Test system: EboV

SMILES | anti-EboV activity
CCOC(=O)C1=C(COCCN)NC(C)=C(C(=O)OC)C1c1ccccc1Cl (stereo not drawn) [amlodipne] | weak anti-EboV activity
CCCCc1oc2ccccc2c1C(=O)c1cc(I)c(OCCN(CC)CC)c(I)c1 [amiodarone] | weak anti-EboV activity
COc1ccc([C@@H]2Sc3ccccc3N(CCN(C)C)C(=O)[C@@H]2OC(C)=O)cc1 [diltiazen] | weak anti-EboV activity

Reference: patent US9676763B2 (priority 2010, dated 2017)
